In general, Ki refers to a dissociation constant, usually derived from enzyme kinetics or from competition with a known ligand. High values mean a looser hold on the target, low ones a stronger hold on the target.

This passage reports Ki results from ChEMBL document CHEMBL2413040, “Ligand/kappa-opioid receptor interactions: insights from the X-ray crystal structure” (Eur J Med Chem, 2013).

This assay can be described thus: Binding affinity to kappa opioid receptor in guinea pig cerebral cortex after 2.5 hrs. Format: tissue-based, Cavia porcellus.

In turn, `NC(=O)[C@H](CC1CCCCC1)NC(=O)[C@@H](Cc1c[nH]c2ccccc12)NC(=O)[C@H](Cc1ccc2ccccc2c1)NC(=O)[C@@H](N)Cc1ccccc1` gave a Ki of 6000 nM.
`CCCC[C@H](N)C(=O)N[C@@H](Cc1ccccc1)C(=O)N[C@H](Cc1c[nH]c2ccccc12)C(=O)N[C@@H](CC1CCCCC1)C(N)=O`: the Ki was 10000 nM.
Then `NC(=O)[C@H](CC1CCCCC1)NC(=O)[C@@H](Cc1c[nH]c2ccccc12)NC(=O)[C@H](Cc1ccccc1)NC(=O)[C@@H](N)Cc1ccccc1`, with 10000 nM; and `CCCC[C@H](N)C(=O)N[C@@H](Cc1ccc2ccccc2c1)C(=O)N[C@H](Cc1c[nH]c2ccccc12)C(=O)N[C@@H](CC1CCCCC1)C(N)=O`, with 10000 nM; and `CCCC[C@@H](NC(=O)[C@H](Cc1ccc2ccccc2c1)NC(=O)[C@@H](N)Cc1ccccc1)C(=O)N[C@@H](CCCNC(=N)N)C(N)=O`, with 7.1 nM.
As for `CCCC[C@H](N)C(=O)N[C@@H](Cc1ccccc1)C(=O)N[C@@H](C(=O)N[C@@H](CCCNC(=N)N)C(N)=O)[C@@H](C)CC`, affinity was put at a Ki of 9.3 nM.
Take `CCCC[C@@H](NC(=O)[C@H](Cc1ccccc1)NC(=O)[C@@H](N)Cc1ccccc1)C(=O)N[C@@H](CC1CCCCC1)C(N)=O`: the Ki was 26 nM.
On to `CCCC[C@H](N)C(=O)N[C@@H](Cc1ccc2ccccc2c1)C(=O)N[C@H](CCCC)C(=O)N[C@@H](CC1CCCCC1)C(N)=O`, for which affinity was put at a Ki of 27 nM.
For the molecule `CCCC[C@@H](NC(=O)[C@H](Cc1ccc2ccccc2c1)NC(=O)[C@@H](N)Cc1ccccc1)C(=O)N[C@@H](CC1CCCCC1)C(N)=O`, the Ki was found to be 33 nM.
Consider `CC[C@H](C)[C@@H](NC(=O)[C@H](Cc1ccc2ccccc2c1)NC(=O)[C@@H](N)Cc1ccccc1)C(=O)N[C@@H](CC1CCCCC1)C(N)=O`, for which the affinity corresponds to a Ki of 53 nM.
`CCCC[C@H](N)C(=O)N[C@@H](Cc1ccc2ccccc2c1)C(=O)N[C@@H](C(=O)N[C@@H](CC1CCCCC1)C(N)=O)[C@@H](C)CC` returned a Ki of 56 nM.
In turn, `CC[C@H](C)[C@@H](NC(=O)[C@H](Cc1ccccc1)NC(=O)[C@@H](N)Cc1ccccc1)C(=O)N[C@@H](CC1CCCCC1)C(N)=O` came in with an inhibitory constant (Ki) of 64 nM.
In turn, `CCCC[C@H](N)C(=O)N[C@@H](Cc1ccccc1)C(=O)N[C@H](CCCC)C(=O)N[C@@H](CC1CCCCC1)C(N)=O` displayed a Ki of 71 nM.
In the case of `CCCC[C@H](N)C(=O)N[C@@H](Cc1ccccc1)C(=O)N[C@@H](C(=O)N[C@@H](CC1CCCCC1)C(N)=O)[C@@H](C)CC`, the affinity, expressed as Ki, was 341 nM.
Regarding `N=C(N)NCCC[C@H](NC(=O)[C@@H](Cc1c[nH]c2ccccc12)NC(=O)[C@H](Cc1ccccc1)NC(=O)[C@@H](N)Cc1ccccc1)C(N)=O`, the inhibitory constant (Ki) was 1140 nM.
`N=C(N)NCCC[C@H](NC(=O)[C@@H](Cc1c[nH]c2ccccc12)NC(=O)[C@H](Cc1ccc2ccccc2c1)NC(=O)[C@@H](N)Cc1ccccc1)C(N)=O` registered a Ki of 1150 nM.
Under `CCCC[C@H](N)C(=O)N[C@@H](Cc1ccc2ccccc2c1)C(=O)N[C@H](Cc1c[nH]c2ccccc12)C(=O)N[C@@H](CCCNC(=N)N)C(N)=O` stands 1760 nM; under `CCCC[C@H](N)C(=O)N[C@@H](Cc1ccccc1)C(=O)N[C@H](Cc1c[nH]c2ccccc12)C(=O)N[C@@H](CCCNC(=N)N)C(N)=O`, 4550 nM; under `CCCC[C@@H](NC(=O)[C@H](Cc1ccccc1)NC(=O)[C@@H](N)Cc1ccccc1)C(=O)N[C@@H](CCCNC(=N)N)C(N)=O`, 1.2 nM.
`CCCC[C@H](N)C(=O)N[C@@H](Cc1ccc2ccccc2c1)C(=O)N[C@@H](C(=O)N[C@@H](CCCNC(=N)N)C(N)=O)[C@@H](C)CC` had a Ki of 1.5 nM.
For `CCCC[C@H](N)C(=O)N[C@@H](Cc1ccc2ccccc2c1)C(=O)N[C@H](CCCC)C(=O)N[C@@H](CCCNC(=N)N)C(N)=O`, the affinity corresponds to a Ki of 2.3 nM.
`CC[C@H](C)[C@@H](NC(=O)[C@H](Cc1ccccc1)NC(=O)[C@@H](N)Cc1ccccc1)C(=O)N[C@@H](CCCNC(=N)N)C(N)=O` registered a Ki of 2.4 nM.
Consider `CC[C@H](C)[C@@H](NC(=O)[C@H](Cc1ccc2ccccc2c1)NC(=O)[C@@H](N)Cc1ccccc1)C(=O)N[C@@H](CCCNC(=N)N)C(N)=O`, for which the Ki came out at 3.6 nM.
Then `CCCC[C@H](N)C(=O)N[C@@H](Cc1ccccc1)C(=O)N[C@H](CCCC)C(=O)N[C@@H](CCCNC(=N)N)C(N)=O`, with 4.2 nM.
